Test results reported in patent publication US11905231B1, “Solid forms, salts and polymorphs of anti-fibrotic compounds” (Certa Therapeutics Pty Ltd, priority 2023, dated 2024).
Structures can show the parent of a compound that is named as a salt. Where two headings read alike, the source gives them in different places.

What was measured:
[1] = 37° C.
Description: (§1) The term “FaSSIF media” refers to Fasted State Simulated Intestinal Fluid media prepared using FaSSIF powder and buffer concentrate obtained from the commercial source Biorelevant (London, UK, biorelevant.com). The FaSSIF powder contains sodium taurocholate, lecithin, sodium chloride, monobasic sodium phosphate and sodium hydroxide. The FaSSIF media is prepared as described at https://biorelevant.com/learning_center/what-is-fassif/. Briefly the pH6.5 buffer containing 0.42 g of NaOH, 3.95 g of NaH2PO4·H2O and 6.19 g of NaCl was dissolved in 0.9 L of purified water and the pH of the solution was adjusted to 6.5 using sodium hydroxide 1N or hydrochloric acid 1N and made up to volume (1 L) with purified water at room temperature. Dissolve 2.24 g of the FaSSIF powder in 0.5 L of the pH6.5 buffer, stirring until the powder is completely dissolved, and then make up to volume (1 L) with buffer at room temperature.
(§2) The samples were stirred using a magnetic stirrer at 37° C. […] The samples were filtered via centrifugation (12,000 rpm, 5 min). The supernatant was diluted (2×) with HPLC grade solvent and analyzed by HPLC.
HPLC gradient was as follows:
(§3) The pH 1.2, pH 4.5, and pH 6.8 media were prepared as standard aqueous buffered solutions following USP <39>.
(§4) As used herein, the term “FaSSIF media” means Fasted Stated Simulated Intestinal Fluid media prepared according to the method known in the art.

[2] = Thermogravimetric Analysis (TGA) weight loss; type: physicochemical; details: for Weight loss (TGA): when heated from about 25° C. to about 120° C. (text)
physchem = details: 37 °C, thermodynamic from solid; for solubility at 1 h: 1 h Solubility; for solubility at 24 h: 24 h Solubility
Description: as §1, §2
HPLC gradient was as follows:
as §3, §4

[3] = Dynamic Vapor Sorption (DVS) hygroscopicity; details: at 80% RH, 25° C., measured during 0% RH to 95% RH increase
Description: The change in water content is recited as a % change in mass of the starting sample and all such water sorption (DVS) values recited herein will be understood to explicitly include numerical values within a +/−0.2% variance.
The humidity is held constant at 30% RH until the mass change of the sample reaches equilibrium, as determined by the rate of change of weight being 0.01%/minute or less. The humidity is then changed to the next step value and the consequent mass change measured, and so on.
The hygroscopicity values recited herein refer to total water gain since the start of the experiment only and so may not necessarily be equivalent to the actual total water content of the sample.

in vivo = details: rat, in vivo, po, 20 mg/kg
Description: Bioavailability is determined by the equation AUC=F·D/CLT, wherein AUC is the area under the plot of plasma concentration, F is the absolute bioavailability, D is the dose, and CLT is the total clearance.
The rats received a single oral dose of 20 mg/kg body weight (b.w.). The doses were prepared as a 2.0 mg/mL suspension in a vehicle of 20 mM Na2HPO4 buffer containing 5% (v/v) DMSO, 0.4% (v/v) 1M NaOH and 0.4% (v/v) Tween 80 and a dose volume of 10 mL/kg b.w.
Pharmacokinetic analysis was performed on the average plasma concentration for each time point.

[4] = Stability of the ethanolamine salt under accelerated and long-term storage conditions; type: physicochemical; details: for API (Purity_) / Total Impurity: HPLC
Description: The samples were assayed by HPLC at the start, after 1 week, and after 2 weeks at the indicated accelerated storage conditions, or after 36 days at room temperature storage. For HPLC analysis, the samples were diluted with 10 mL of TFA/DMSO/ACN (0.1/10/90, v/v/v) to ˜1 mg/mL and analyzed by HPLC.
The samples were also analyzed by XRPD at initial, 1 week, 2 weeks and 36 day time points.

[5] = pH 1.2 aqueous buffer, pH 1.2, simulated gastric fluid, pH 1.2 medium
[6] = pH 4.5 aqueous buffer, pH 4.5 medium
[7] = 40° C., 75% RH, open vial, 1 week
[8] = 40° C., 75% RH, open vial, 2 weeks

Compound: C#CCOc1ccc(/C=C/C(=O)Nc2ccccc2C(=O)O)cc1OC [Ethanolamine salt]
- 1 h Solubility ([1]; FaSSIF (pH 7.5)): >7990 µg/mL
- 24 h Solubility ([1]; FaSSIF (pH 7.5)): >7990 µg/mL
- 1 h Solubility ([1]; FaSSIF): 238 µg/mL
- 24 h Solubility ([1]; FaSSIF): 263 µg/mL
- 1 h Solubility ([1]; FeSSIF (pH 7.8)): >8020 µg/mL
- 24 h Solubility ([1]; FeSSIF (pH 7.8)): >8020 µg/mL
- 1 h Solubility ([1]; FeSSIF): 12 µg/mL
- 24 h Solubility ([1]; FeSSIF): 25 µg/mL
- 1 h Solubility ([1]; pH 6.8 medium): 116 µg/mL
- Weight loss by TGA ([2]; from 0° C. to 120° C.): 0.10% from 0 °C to
- Weight loss by TGA ([2]; from r.t. to 120° C.): 0.10% from r.t. to
- Total weight loss by TGA ([2]; from r.t. to 350° C. (or to decomposition if lower)): 0.10% total weight
- Weight loss (TGA) ([2]; listed as ethanolamine): 0.10%
- Weight loss (TGA) ([2]; listed as ethanolamine salt): about 0.1%
- solubility at 1 h (physchem; [5]): 8 µg/mL
- solubility at 24 h (physchem; [5]): 3 µg/mL
- solubility at 1 h (physchem; [6]): 28 µg/mL
- solubility at 24 h (physchem; [6]): 5 µg/mL
- solubility at 24 h (physchem; pH 6.8 aqueous buffer, pH 6.8 medium): 88 µg/mL
- Hygroscopicity by DVS [3]: 0.49%
- Hygroscopicity by DVS ([3]; listed as ethanolamine): 0.49%
- Hygroscopicity by DVS ([3]; listed as ethanolamine salt): about 0.49%
- AUCExtr (in vivo; Sprague-Dawley): 1.92%
- AUCInf (in vivo; Sprague-Dawley): 405.006 µg·h/mL
- AUClast (in vivo; Sprague-Dawley): 396.535 µg·h/mL
- tmax (in vivo; Sprague-Dawley): 1.00 h
- Mean concentration (plasma) (in vivo; Sprague-Dawley, 0.5 h): 37133 ng/mL
- Mean concentration (plasma) (in vivo; Sprague-Dawley, 1 h): 52733 ng/mL
- Mean concentration (plasma) (in vivo; Sprague-Dawley, 2 h): 40300 ng/mL
- Mean concentration (plasma) (in vivo; Sprague-Dawley, 4 h): 25900 ng/mL
- Mean concentration (plasma) (in vivo; Sprague-Dawley, 8 h): 18767 ng/mL
- Mean concentration (plasma) (in vivo; Sprague-Dawley, 24 h): 1262 ng/mL
- half-life (in vivo; Sprague-Dawley, t1/2): 4.32 h
- Plasma concentration at 24 h post dose compared to the other tested compounds (in vivo): highest plasma concentrations
- Appearance [4, 7]: White
- API (Purity_) [4, 7]: 99.73%
- Total Impurity [4, 7]: 0.27%
- Appearance [4, 8]: White
- API (Purity_) [4, 8]: 99.72%
- Total Impurity [4, 8]: 0.28%
- Appearance ([4]; 60° C., open vial, 1 week): White
- API (Purity_) ([4]; 60° C., open vial, 1 week): 99.73%
- Total Impurity ([4]; 60° C., open vial, 1 week): 0.27%
- Appearance ([4]; 60° C., open vial, 2 weeks): White
- API (Purity_) ([4]; 60° C., open vial, 2 weeks): 99.71%
- Total Impurity ([4]; 60° C., open vial, 2 weeks): 0.29%
- Appearance ([4]; Initial): White
- API (Purity_) ([4]; Initial): 99.75%
- Total Impurity ([4]; Initial): 0.26%
- Changes in impurity content or crystallinity ([4]; accelerated storage (1-2 weeks) or long-term storage (room temperature, 36 days), HPLC and XRPD): no significant changes
